Experimental data from patent publication US10329304B2, “Compounds and methods for inhibition of hedgehog signaling and phosphodiesterase” (Vanderbilt University, priority 2014, dated 2019).
pEC50, pIC50: −log10 of the molar value.

Experiments:
[1] = test system: Hedgehog signaling (Gli-Luc reporter); test: Hh Gli-Luciferase reporter assay in Shh-Light2 cells; format: cell-based, mouse; conditions: Mus musculus, Shh Light2; Table 9B; read-out: Shh Light2 Luc EC50
Method: For Hh signaling assays, Shh-Light2 cells stably transfected with Gli-Luciferase reporter construct were used along with Shh-conditioned media, as previously described^7. Alternatively, 3 μM purmorphamine or 20 nM Smoothened agonist (SAG) (Santa Cruz Biotechnology, Santa Cruz, Calif.) was used to induce Hh signaling. Reporter cells were seeded in 96-well plates and incubated overnight with the various concentrations of eggmanone and Shh-conditioned media. To assess the effects of overexpression of Gli-2, PDE4D3 and DN-PDE4D3 on Hh signaling, mammalian expression vectors containing these constructs were transfected into Shh-Light2 cells in 96-well plates using Fugene6 (Roche), according to manufacturer's instructions. The transfected or Shh-stimulated cells were incubated overnight with the various concentrations of compound. The cells were then lysed, and cell extracts were subjected to Steady-Glo luciferase assay (Promega) according to manufacturer's instructions. The results were normalized to cell titer, as determined using Cell Titer-Glo luminescence assay (Promega).

B16F11 = test: Cell viability assay (CellTiter-Blue, 72 hr); format: cell-based, Mouse; conditions: Mus musculus, B16-F10; Table 10; read-out: CELL KILLING EC50 (μM) Melanoma B16F10
Method: (§1) Cancer cell lines were seeded in 96 well tissue culture plate at a low density (10,000 cells per well) and treated with varying concentrations of Eggmanone. After 72 hr incubation, CellTiter-Blue Cell Viability Assay (Promega, Madison, Wis.) was then performed according to manufacturer's protocol. Absorbance was then measured in a Modulus Microplate reader (Promega, Madison, Wis.) at 590 nm and compared to cells treated with DMSO.
as §1, with “density” for “density (10,000 cells per well)”, “compounds identified in Table 7.” for “Eggmanone.”

DU145 = test: Cell viability assay (CellTiter-Blue, 72 hr); format: cell-based, Human; conditions: DU-145; human cancer cells; read-out: CELL KILLING EC50 (μM) Prostate DU145
Method: as §1
as §1, with “density” for “density (10,000 cells per well)”, “compounds identified in Table 7.” for “Eggmanone.”

DaoY = test: Cell viability assay (CellTiter-Blue, 72 hr); format: cell-based, Human; conditions: Daoy; human cancer cells; read-out: CELL KILLING EC50 (μM) Medulloblastoma DaoY
Method: as §1
as §1, with “density” for “density (10,000 cells per well)”, “compounds identified in Table 7.” for “Eggmanone.”

HCT116 = test: Cell viability assay (CellTiter-Blue, 72 hr); format: cell-based, Human; conditions: HCT-116; human cancer cells; read-out: CELL KILLING EC50 (μM) Colon HTC116
Method: as §1
as §1, with “density” for “density (10,000 cells per well)”, “compounds identified in Table 7.” for “Eggmanone.”

HeLa = test: Cell viability assay (CellTiter-Blue, 72 hr); format: cell-based, Human; conditions: human cancer cells, read-out: CELL KILLING EC50 (μM) Cervix HeLa
Method: as §1
as §1, with “density” for “density (10,000 cells per well)”, “compounds identified in Table 7.” for “Eggmanone.”

MDA-MB- 231 = test: Cell viability assay (CellTiter-Blue, 72 hr); format: cell-based, Human; conditions: MDA-MB-231; human cancer cells; read-out: CELL KILLING EC50 (μM) Breast MDA-231
Method: as §1
as §1, with “density” for “density (10,000 cells per well)”, “compounds identified in Table 7.” for “Eggmanone.”

RKO = test: Cell viability assay (CellTiter-Blue, 72 hr); format: cell-based, Human; conditions: RKO; human cancer cells; read-out: CELL KILLING EC50 (μM) Colon RKO
Method: as §1
as §1, with “density” for “density (10,000 cells per well)”, “compounds identified in Table 7.” for “Eggmanone.”

RWGT2 = test: Cell viability assay (CellTiter-Blue, 72 hr); format: cell-based, Human; conditions: human cancer cells; read-out: CELL KILLING EC50 (μM) Lung Squam, NSCLC RWGT2
Method: as §1
as §1, with “density” for “density (10,000 cells per well)”, “compounds identified in Table 7.” for “Eggmanone.”

SW480 = test: Cell viability assay (CellTiter-Blue, 72 hr); format: cell-based, Human; conditions: SW480; human cancer cells; read-out: CELL KILLING EC50 (μM) Colon SW480
Method: as §1
as §1, with “density” for “density (10,000 cells per well)”, “compounds identified in Table 7.” for “Eggmanone.”

MCF7 = test: Cell viability assay (CellTiter-Blue, 72 hr); format: cell-based; conditions: MCF7; human cancer cells; read-out: CELL KILLING EC50 (μM) Breast MCF7
Method: as §1
as §1, with “density” for “density (10,000 cells per well)”, “compounds identified in Table 7.” for “Eggmanone.”

PC3 = test: Cell viability assay (CellTiter-Blue, 72 hr); format: cell-based; conditions: PC-3; human cancer cells; read-out: CELL KILLING EC50 (μM) Prostate PCx3
Method: as §1

H82 = test: Cell killing EC50 in H82 lung cancer cells (Table 10); format: cell-based; conditions: NCI-H82; human cancer cells
Method: It is anticipated that compounds disclosed herein could serve as an anti-tumor, anti-angiogenic, anti-metastatic, agent in the treatment of cancer. To this end, a series of clinically relevant cancer lines were assayed and the cell-killing EC50s for compounds according to the subject matter disclosed herein are provided in Table 10.

PDE4D3 = molecular target: T1, PDE4D3 (Homo sapiens, UniProt Q08499); test: In vitro PDE assay; format: biochemical
T1 construct: purchased BPS Biosciences (San Diego, Calif.); kinetic studies by Millipore (St. Louis, Mo.)
T1 sequence (Q08499 1-673 isoform Q08499-2): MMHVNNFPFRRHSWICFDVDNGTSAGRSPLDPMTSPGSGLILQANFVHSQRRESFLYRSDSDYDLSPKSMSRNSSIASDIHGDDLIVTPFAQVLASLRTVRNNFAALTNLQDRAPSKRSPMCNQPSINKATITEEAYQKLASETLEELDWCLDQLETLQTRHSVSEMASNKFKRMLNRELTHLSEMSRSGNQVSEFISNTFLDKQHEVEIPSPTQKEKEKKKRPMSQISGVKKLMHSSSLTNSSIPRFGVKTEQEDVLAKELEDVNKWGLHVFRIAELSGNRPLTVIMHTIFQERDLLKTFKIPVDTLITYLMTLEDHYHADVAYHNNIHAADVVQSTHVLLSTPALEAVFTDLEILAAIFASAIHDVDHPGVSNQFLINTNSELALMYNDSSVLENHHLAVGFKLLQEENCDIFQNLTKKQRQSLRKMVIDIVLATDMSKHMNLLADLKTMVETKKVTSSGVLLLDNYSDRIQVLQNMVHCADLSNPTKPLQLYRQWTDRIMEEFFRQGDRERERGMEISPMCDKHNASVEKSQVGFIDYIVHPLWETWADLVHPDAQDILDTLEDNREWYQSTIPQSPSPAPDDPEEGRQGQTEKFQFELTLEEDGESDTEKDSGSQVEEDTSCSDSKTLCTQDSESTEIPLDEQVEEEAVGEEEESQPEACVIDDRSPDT
Method: (§2) In vitro PDE profiling and dose-response assays were performed by BPS Biosciences (San Diego, Calif.). Kinetic Mechanism of inhibition studies were conducted by Millipore (St. Louis, Mo.). In brief, the PDE assay measures fluorescent polarization of FAM-AMP as FAM-cAMP is converted to FAM-AMP by PDE), the binding agent.
(§3) A series of dilutions of the test compound were prepared with 10% DMSO in assay buffer and 5 μl of the dilution was added to a 50 μl reaction so that the final concentration of DMSO is 1% in all of reactions. All of the PDE enzymatic reactions were conducted in duplicate at room temperature for 60 minutes in a 50 μl mixture containing PDE assay buffer (10 mM Tris-HCl, pH7.4, 10 mM MaCl2, 0.05% Tween 20), 100 nM FAM-cAMP, a PDE enzyme and a test compound.
(§4) After the enzymatic reaction, 100 μl of a binding solution (1:100 dilution of the binding agent, which contains the nano beads that recognize FAM-AMP, with the binding agent diluent) was added to each reaction and the reaction was performed at room temperature for 60 minutes. Fluorescence intensity was measured at an excitation of 485 nm and an emission of 528 nm using a Tecan Infinite M1000 microplate reader. Assays done by Millipore were conducted similarly with changes noted below: […]

PDE4D2 = molecular target: T2, PDE4D2 (Homo sapiens, UniProt Q08499); test: In vitro PDE assay; format: biochemical; conditions: Table 9A
T2 construct: purchased BPS Biosciences (San Diego, Calif.)
T2 sequence (Q08499 303-809): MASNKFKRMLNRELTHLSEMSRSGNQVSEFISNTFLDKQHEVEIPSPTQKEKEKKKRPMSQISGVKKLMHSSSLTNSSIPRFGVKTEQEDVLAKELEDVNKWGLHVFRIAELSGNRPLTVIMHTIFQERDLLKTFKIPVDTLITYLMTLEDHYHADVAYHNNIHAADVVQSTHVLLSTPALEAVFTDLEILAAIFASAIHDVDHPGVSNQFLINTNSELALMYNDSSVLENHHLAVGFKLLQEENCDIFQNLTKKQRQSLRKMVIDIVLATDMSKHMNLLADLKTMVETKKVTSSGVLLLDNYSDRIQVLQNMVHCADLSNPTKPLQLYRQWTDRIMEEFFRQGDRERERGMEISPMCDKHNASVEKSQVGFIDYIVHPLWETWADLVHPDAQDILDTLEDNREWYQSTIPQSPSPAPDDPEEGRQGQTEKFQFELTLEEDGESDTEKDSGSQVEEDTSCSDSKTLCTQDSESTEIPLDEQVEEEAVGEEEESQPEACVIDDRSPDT
Method: as §2, §3, §4

Gli1 mRNA = test: Hh % Inh.: SAG-induced Gli1 expression in C3H10T½ cells (qPCR); format: cell-based; conditions: Mus musculus, C3H 10T1/2, SAG-induced (100 nM), 24 hours; for inhibition at 1 µM: 1 pM [sic], read-out: C3H10T1/2 qPCR, Gh1 mRNA % Inh., 1 pM; for inhibition at 10 µM: 10 pM [sic], read-out: C3H10T1/2 qPCR, Gh1 mRNA % Inh., 10 pM
Method: Compounds are dosed from 10 mM DMSO stock solutions, and mRNA is isolated after 24 hours of compound treatment. mRNA is reverse transcribed to produce cDNA which is quantified by quantitative polymerase chain reaction (qPCR) in triplicate and levels are normalized to GAPDH levels. Data is presented as percent inhibition compared to positive control (SAG).

[2] = test system: Hedgehog signaling (TM3-Gli-Luc); test: TM3-Gli-Luc luciferase reporter assay stimulated with 20 nM SAG; format: cell-based; conditions: Table 9A; read-out: TM3 G8 Luciferase EC 50
In short: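 TM3-Gli-Luc cells on 0.1% gelatin in DMEM/F12 with 2.5% FBS, treated 48 h with compound plus 20 nM SAG. Steady-Glo luminescence normalized to CellTiter-Glo viability, DMSO-only (no SAG) background subtracted, percent of SAG control. EC50 averaged from ≥2 independent days ±SEM.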

| SMILES | pEC50 [1] | EC50 (B16F11) [µM] | EC50 (DU145) [µM] | EC50 (DaoY) [µM] | EC50 (HCT116) [µM] | EC50 (HeLa) [µM] | EC50 (MDA-MB- 231) [µM] | EC50 (RKO) [µM] | EC50 (RWGT2) [µM] | EC50 (SW480) [µM] | EC50 (MCF7) [µM] | EC50 (PC3) [µM] | EC50 (H82) [µM] | pIC50 (PDE4D3; Table 9B) | pIC50 (PDE4D2) | pIC50 (PDE4D3; Table 9A) | inhibition at 1 µM (Gli1 mRNA) [%] | inhibition at 10 µM (Gli1 mRNA) [%] | pEC50 [2] |
| --- | --- | --- | --- | --- | --- | --- | --- | --- | --- | --- | --- | --- | --- | --- | --- | --- | --- | --- | --- |
| C=CCn1c(SCC(=O)c2ccccc2)nc2sc(C)cc2c1=O [HI277] | < 5.00 | > 100 | 180 | 247 | 136 | 5.11 | 186 | > 100 | 30.5 | 0.03 | > 100 | > 100 | > 100 | – | – | – | – | – | – |
| Cn1c(SCC(=O)c2ccc(F)cc2)nc2sc3c(c2c1=O)CCCC3 [HI302] | < 5.00 | 16 | 0.078 | 26.6 | 21.9 | 20.2 | 18.7 | 0.0096 | 22.9 | 3.3 | > 100 | > 100 | > 100 | – | – | – | – | – | – |
| CCCCn1c(SCC(=O)c2ccccc2)nc2sc3c(c2c1=O)CCC3 [HI352] | < 5.00 | 109 | 98.1 | 100 | 74.7 | 114 | 84.5 | 100 | 73.8 | 0.287 | > 100 | 0.03 | > 100 | 4.70 | – | – | – | – | – |
| C=CCn1c(SCC(=O)c2ccc(Cl)s2)nc2sc(C)c(C)c2c1=O [HI499] | 5.02 to 5.34 | 46 | 48.8 | 177 | 28.1 | 441 | > 100 | 35.7 | 45.8 | 0.69 | 2.67 | 202 | > 100 | – | – | – | – | – | – |
| C=CCn1c(SCC(=O)c2ccccc2)nc2sc(CC)cc2c1=O [HI630] | < 5.00 | – | > 100 | > 100 | – | > 100 | 23.1 | 100 | 44.4 | 182 | > 100 | > 100 | > 100 | 5.22 | – | – | – | – | – |
| C=C(C)Cn1c(SCC(=O)c2ccc(F)cc2)nc2sc3c(c2c1=O)CCCC3 [HI0863] | 5.61 | 4.46 | 2.38 | 39.8 | 0.078 | 12.2 | 3.12 | 42.8 | 38.8 | 5.4 | > 100 | 47.7 | > 100 | – | – | – | – | – | – |
| O=C(CSc1nc2sc3c(c2c(=O)n1-c1ccccc1)CCCC3)c1cccs1 [JEH-3-058-1] | – | – | – | – | – | – | – | – | – | – | – | – | – | – | 4.35 | 4.85 | 12 | 85.3 | 4.90 |
| C=C(C)Cn1c(SCC(=O)N2CCOCC2)nc2sc3c(c2c1=O)CCCC3 [JEH-3-079] | – | – | – | – | – | – | – | – | – | – | – | – | – | – | 5.49 | 5.39 | 25.1 | 50.8 | 4.74 |
